Measured values from US7130746B2, “Computer systems and computer programs for determining protein activity levels using gene expression profiles” (priority 1998, dated 2006).

Tests used:
wild type yeast cells = conditions: 10 micrograms/ml doxycycline (Gari et al., 1997); cited from earlier work
[1] = tested on: yeast Saccharomyces cerevisiae; assay: Yeast growth under methotrexate titration; assay type: cell-based; conditions: 100 μM methotrexate titration
yeast gene YOL031C = assay: Transcript array gene expression response to methotrexate, Hill function fit; assay type: cell-based, Saccharomyces cerevisiae
Description: FIG. 2 illustrates an example of perturbation response profiles measured at discrete protein activity levels of dihydrofolate reductase. Specifically, the figure illustrates mRNA expression levels of 30 genes of the yeast Saccharomyces cerevisiae that, of the 6000 genes in the genome of this yeast, had the largest expression changes in response to six different titrations of the drug methotrexate, which is known to act primarily by disrupting the activity of dihydrofolate reductase. These gene expression level measurements were made with gene transcript arrays, as described in Section 5.5. The perturbation response profiles in FIG. 2 can be interpolated according to the methods disclosed in Section 5.4, below, to provide perturbation response profiles for any activity level of dihydrofolate reductase, i.e., perturbation response curves.
In model fitting, the perturbation responses are interpolated by approximating each by a single parameterized function. An exemplary model-fitting function appropriate for approximating transcriptional state data is the Hill function, which has adjustable parameters a, u0 and n.
[formula] the adjustable parameters are selected independently for each cellular constituent of the perturbation response. Preferably, the adjustable parameters are selected so that for each cellular constituent the sum of the squares of the distances H(pl) from Rk(pl) is minimized. This preferable parameter adjustment method is known in the art as a least squares fit of H( ) to Rk( ). Other possible model functions are based on polynomial fitting, for example by various known classes of polynomials.
Model fitting with a Hill function is illustrated with respect to FIGS. 2 and 4. As discussed, FIG. 2 illustrates an example of perturbation by methotrexate and identified by measurement. This figure illustrates the RNA expression levels of 30 genes of the yeast S. cerevisiae that, of the approximately 6000 genes in the genome of this organism, had the largest expression changes in response to six different exposure levels of methotrexate. […]

| SMILES | effect on growth rate (wild type yeast cells) | growth defect [1] | Hill function parameter n (yeast gene YOL031C; least squares fit of YOL031C expression response) | Hill function parameter a (yeast gene YOL031C; least squares fit of YOL031C expression response (log10 expression ratio)) | Hill function parameter log10(u0) (yeast gene YOL031C; least squares fit of YOL031C expression response, methotrexate exposures 3-200 μM) |
| --- | --- | --- | --- | --- | --- |
| C[C@H]1c2cccc(O)c2C(=O)C2=C(O)[C@]3(O)C(=O)C(C(N)=O)=C(O)[C@@H](N(C)C)[C@@H]3[C@@H](O)[C@@H]21 [doxycycline] | no significant effect | – | – | – | – |
| CN(Cc1cnc2nc(N)nc(N)c2n1)c1ccc(C(=O)N[C@@H](CCC(=O)O)C(=O)O)cc1 [methotrexate] | – | 50% | 2 | −0.61 | 1.26 |
